Values after ≈ are worked out from the molar mass of the structure shown. Like-named read-outs stand apart in the source and are kept apart here.
Experiments:
S. aureus ATCC 25923 [1] = assay: Antibacterial activity, post-exposure on preformed 18-h-old biofilms; format: cell-based, Staphylococcus aureus; details: ± SD; for inhibition at 25 µM / inhibition at 50 µM / inhibition at 100 µM / inhibition at 200 µM: Staphylococcus aureus; for inhibition at 25 µM: ATCC25923, 25 µM; for inhibition at 50 µM: ATCC25923, 50 µM; for inhibition at 100 µM: ATCC25923, 100 µM; for inhibition at 200 µM: ATCC25923, 200 µM
Experimental: For the post-exposure experiment, bacteria were grown with no compounds in the same conditions for 18 h, after which the media was changed, and compounds were added on the preformed biofilms. The plates were then incubated in the same conditions for an additional 24 h before proceeding to the staining assays.
(§1) The resazurin staining was performed according to the protocol previously optimized with a few modifications.[46] Briefly, the planktonic solution was first transferred into a new 96-well plate and the OD of the planktonic solution was measured using a Varioskan LUX Multimode microplate reader (Thermo Scientific, Vantaa, Finland). Then, 10 μL of a 400 μM resazurin (R7017, Sigma-Aldrich, St. Louis, MO) diluted in phosphate-buffered saline (PBS) (Thermo Fisher Scientific, MA) was added to the wells (for a final resazurin concentration of 20 μM). The plate was incubated in the dark with shaking (220 rpm) for about 3–10 min at room temperature with S. aureus and A. baumannii (until the bacteria controls turned pink) or for 20 min at 37 °C with P. aeruginosa. Fluorescence was measured at λex = 560 nm and λem = 590 nm using the top optics of the Varioskan LUX Multimode microplate reader. The planktonic plate was then discarded. The original challenge plate containing the biofilms was washed once with PBS, and 200 μL of a 20 μM resazurin solution was added to the wells. The plate was incubated in the dark at 37 °C with shaking (220 rpm) for 30 min with S. aureus, 60 min with A. baumannii, and 90 min with P. aeruginosa. Fluorescence was measured as described for the planktonic solution. The biofilms were next treated with crystal violet staining.
(§2) After removing the resazurin solution from the plate, biofilms were fixed with ethanol 100% for 15 min at room temperature. Ethanol was then removed, and the biofilms were left to air-dry completely at RT. Crystal violet, diluted to 1:100 in deionized water from the 2.3% commercial solution (HT90132, Sigma-Aldrich, St. Louis, MO), was added to the wells and, after a 5 min incubation with the dye, the biofilms were washed twice with deionized water and left to air-dry for about 10 min. The dye was solubilized in ethanol 100% for 1 h, and absorbance was measured at 595 nm using a Multiskan Sky microplate spectrophotometer (Thermo Scientific, Vantaa, Finland).

P. aeruginosa ATCC 9027 = assay: Antibacterial activity, pre-exposure; format: cell-based, Pseudomonas aeruginosa; details: for Average inhibition %, biofilms viability / Average inhibition %, planktonic cells viability / inhibition at 50 µM / inhibition at 100 µM / inhibition at 150 µM / inhibition at 200 µM: P. aeruginosa ATCC 9027, pre-exposure, ± SD; for inhibition at 50 µM / inhibition at 100 µM / inhibition at 150 µM / inhibition at 200 µM: Pseudomonas aeruginosa, ATCC9027
Experimental: (§3) The antimicrobial activity was assessed in a similar way for the initial screening and the dose–response evaluation against different bacterial strains. With the exception of the post-exposure experiment, the compounds were added to the wells along with the bacteria to test the ability of compounds to prevent bacterial growth and biofilm formation (pre-exposure). The compounds were diluted in DMSO and plated directly in 96-well plates before adding the bacterial culture, and plates were incubated for 18 h under aerobic conditions at 37 °C with shaking (220 rpm). The antibacterial activity of the compounds was assessed on planktonic cells and biofilms separately using two different measurements for each: optical density (turbidity) and resazurin reduction (viability) on planktonic cells and resazurin followed by a crystal violet staining assay (total biomass) on biofilms, as described in the following sections.
as §1, §2

S. aureus ATCC 25923 [2] = assay: Antibacterial activity, pre-exposure (planktonic cells and biofilm formation); format: cell-based, Staphylococcus aureus; details: for MIC / inhibition at 5 µM / inhibition at 10 µM / inhibition at 15 µM / inhibition at 25 µM: Staphylococcus aureus, ATCC25923; for inhibition at 5 µM / inhibition at 10 µM / inhibition at 15 µM / inhibition at 25 µM / Average inhibition %, biofilms viability / Average inhibition %, planktonic cells viability: pre-exposure, ± SD
Experimental: as §3, §1, §2

A. baumannii NCTC 13423 = assay: Antibacterial activity, pre-exposure; format: cell-based, Acinetobacter baumannii; details: for Average inhibition %, biofilms viability / Average inhibition %, planktonic cells viability / inhibition at 10 µM / inhibition at 15 µM / inhibition at 25 µM / inhibition at 50 µM: A. baumannii NCTC 13423, pre-exposure, ± SD; for inhibition at 10 µM / inhibition at 15 µM / inhibition at 25 µM / inhibition at 50 µM / MIC: Acinetobacter baumannii, NCTC13423
Experimental: as §3, §1, §2

[3] = read-out: Average inhibition %, biofilms biomass
[4] = read-out: Average inhibition %, planktonic cells turbidity
[5] = 50 µM, read-out: Average inhibition %, biofilms biomass
[6] = 50 µM, read-out: Average inhibition %, planktonic cells turbidity
[7] = 10 µM, read-out: Average inhibition %, biofilms biomass
[8] = 10 µM, read-out: Average inhibition %, planktonic cells turbidity
[9] = 15 µM, read-out: Average inhibition %, biofilms biomass
[10] = 15 µM, read-out: Average inhibition %, planktonic cells turbidity
[11] = 25 µM, read-out: Average inhibition %, biofilms biomass
[12] = 25 µM, read-out: Average inhibition %, planktonic cells turbidity

Question: What does the source list for CCCCCCCCCCc1ccc2nc(CC(N)(CO)CO)ccc2c1 [Compound 83, 2-Amino-2-[(6-decylquinolin-2-yl)methyl]propane-1,3-diol]?
Answer: Average inhibition %, biofilms viability (S. aureus ATCC 25923 [1]; 25 µM): 16.8 ± 17.2%; Average inhibition %, planktonic cells viability (S. aureus ATCC 25923 [1]; 25 µM): 14.1 ± 20.9%; Average inhibition %, biofilms viability (S. aureus ATCC 25923 [1]; 50 µM): 34.4 ± 15.3%; Average inhibition %, planktonic cells viability (S. aureus ATCC 25923 [1]; 50 µM): 22.7 ± 19.5%; Average inhibition %, biofilms viability (S. aureus ATCC 25923 [1]; 100 µM): 56.6 ± 18.2%; Average inhibition %, planktonic cells viability (S. aureus ATCC 25923 [1]; 100 µM): 80.3 ± 17.9%; Average inhibition %, biofilms viability (S. aureus ATCC 25923 [1]; 200 µM): 58.6 ± 19.5%; Average inhibition %, planktonic cells viability (S. aureus ATCC 25923 [1]; 200 µM): 88.3 ± 12.1%; inhibition at 25 µM (S. aureus ATCC 25923 [1]; [3]): 31.7 ± 20.9%; inhibition at 25 µM (S. aureus ATCC 25923 [1]; [4]): 27.1 ± 19.8%; inhibition at 50 µM (S. aureus ATCC 25923 [1]; [3]): 50.3 ± 6.4%; inhibition at 50 µM (S. aureus ATCC 25923 [1]; [4]): 28.3 ± 13.2%; inhibition at 100 µM (S. aureus ATCC 25923 [1]; [3]): 71.3 ± 10.2%; inhibition at 100 µM (S. aureus ATCC 25923 [1]; [4]): 64.4 ± 14%; inhibition at 200 µM (S. aureus ATCC 25923 [1]; [3]): 71.5 ± 5.8%; inhibition at 200 µM (S. aureus ATCC 25923 [1]; [4]): 65.3 ± 5.8%; Average inhibition %, biofilms viability (P. aeruginosa ATCC 9027; 50 µM): 12.2 ± 21.1%; Average inhibition %, planktonic cells viability (P. aeruginosa ATCC 9027; 50 µM): 10.5 ± 6.5%; Average inhibition %, biofilms viability (P. aeruginosa ATCC 9027; 100 µM): 0.5 ± 0.9%; Average inhibition %, planktonic cells viability (P. aeruginosa ATCC 9027; 100 µM): 14.8 ± 0.4%; Average inhibition %, biofilms viability (P. aeruginosa ATCC 9027; 150 µM): 2.6 ± 3.8%; Average inhibition %, planktonic cells viability (P. aeruginosa ATCC 9027; 150 µM): 20.2 ± 15%; Average inhibition %, biofilms viability (P. aeruginosa ATCC 9027; 200 µM): 1.1 ± 1%; Average inhibition %, planktonic cells viability (P. aeruginosa ATCC 9027; 200 µM): 16.3 ± 15.7%; inhibition at 50 µM (P. aeruginosa ATCC 9027; [5]): 6.4 ± 11.1%; inhibition at 50 µM (P. aeruginosa ATCC 9027; [6]): 35.2 ± 3%; inhibition at 100 µM (P. aeruginosa ATCC 9027; 100 µM, read-out: Average inhibition %, biofilms biomass): 2.1 ± 2.3%; inhibition at 100 µM (P. aeruginosa ATCC 9027; 100 µM, read-out: Average inhibition %, planktonic cells turbidity): 38.6 ± 10.1%; inhibition at 150 µM (P. aeruginosa ATCC 9027; 150 µM, read-out: Average inhibition %, biofilms biomass): 1.3 ± 2.3%; inhibition at 150 µM (P. aeruginosa ATCC 9027; 150 µM, read-out: Average inhibition %, planktonic cells turbidity): 34.8 ± 16.4%; inhibition at 200 µM (P. aeruginosa ATCC 9027; 200 µM, read-out: Average inhibition %, biofilms biomass): 3.7 ± 4.7%; inhibition at 200 µM (P. aeruginosa ATCC 9027; 200 µM, read-out: Average inhibition %, planktonic cells turbidity): 33.2 ± 7.3%; MIC P. aeruginosa ATCC 9027 (P. aeruginosa ATCC 9027; pre-exposure, Inactive = no activity up to 200 μM, > = some inhibition but no MIC reached): Inactive; MIC (S. aureus ATCC 25923 [2]; lowest concentration with no visible growth (>90% inhibition of turbidity and viability of planktonic cells), 18 h, read-out: MIC S. aureus ATCC 25923): 10 µM (≈ 3.73 µg/mL); inhibition at 5 µM (S. aureus ATCC 25923 [2]; 5 µM, read-out: Average inhibition %, biofilms biomass): 37.3 ± 7.9%; inhibition at 5 µM (S. aureus ATCC 25923 [2]; 5 µM, read-out: Average inhibition %, planktonic cells turbidity): 37.9 ± 5.1%; inhibition at 10 µM (S. aureus ATCC 25923 [2]; [7]): 97.3 ± 0.8%; inhibition at 10 µM (S. aureus ATCC 25923 [2]; [8]): 99.5 ± 0.2%; inhibition at 15 µM (S. aureus ATCC 25923 [2]; [9]): 93.9 ± 1.4%; inhibition at 15 µM (S. aureus ATCC 25923 [2]; [10]): 99.4 ± 0.1%; inhibition at 25 µM (S. aureus ATCC 25923 [2]; [11]): 89.4 ± 1.4%; inhibition at 25 µM (S. aureus ATCC 25923 [2]; [12]): 99 ± 0.2%; MIC (S. aureus ATCC 25923 [2]; read-out: MIC (S. aureus)): 10 µM (≈ 3.73 µg/mL); Average inhibition %, biofilms viability (S. aureus ATCC 25923 [2]; 5 µM): 34.6 ± 5.8%; Average inhibition %, planktonic cells viability (S. aureus ATCC 25923 [2]; 5 µM): 6.9 ± 10.7%; Average inhibition %, biofilms viability (S. aureus ATCC 25923 [2]; 10 µM): 99.6 ± 0.4%; Average inhibition %, planktonic cells viability (S. aureus ATCC 25923 [2]; 10 µM): 99.6 ± 0%; Average inhibition %, biofilms viability (S. aureus ATCC 25923 [2]; 15 µM): 99.8 ± 0.6%; Average inhibition %, planktonic cells viability (S. aureus ATCC 25923 [2]; 15 µM): 99.6 ± 0%; Average inhibition %, biofilms viability (S. aureus ATCC 25923 [2]; 25 µM): 99.6 ± 0.4%; Average inhibition %, planktonic cells viability (S. aureus ATCC 25923 [2]; 25 µM): 99.7 ± 0%; Average inhibition %, biofilms viability (A. baumannii NCTC 13423; 10 µM): 0.7 ± 1.2%; Average inhibition %, planktonic cells viability (A. baumannii NCTC 13423; 10 µM): 8 ± 5.8%; Average inhibition %, biofilms viability (A. baumannii NCTC 13423; 15 µM): 1.2 ± 2.2%; Average inhibition %, planktonic cells viability (A. baumannii NCTC 13423; 15 µM): 7.2 ± 6.6%; Average inhibition %, biofilms viability (A. baumannii NCTC 13423; 25 µM): 5.6 ± 6.6%; Average inhibition %, planktonic cells viability (A. baumannii NCTC 13423; 25 µM): 3.1 ± 3.1%; Average inhibition %, biofilms viability (A. baumannii NCTC 13423; 50 µM): 68.9 ± 2.6%; Average inhibition %, planktonic cells viability (A. baumannii NCTC 13423; 50 µM): 95.2 ± 1.7%; inhibition at 10 µM (A. baumannii NCTC 13423; [7]): 6.4 ± 9.4%; inhibition at 10 µM (A. baumannii NCTC 13423; [8]): 0%; inhibition at 15 µM (A. baumannii NCTC 13423; [9]): 0%; inhibition at 15 µM (A. baumannii NCTC 13423; [10]): 0%; inhibition at 25 µM (A. baumannii NCTC 13423; [11]): 0%; inhibition at 25 µM (A. baumannii NCTC 13423; [12]): 11.8 ± 12.4%; inhibition at 50 µM (A. baumannii NCTC 13423; [5]): 10.4 ± 10.2%; inhibition at 50 µM (A. baumannii NCTC 13423; [6]): 88.3 ± 1.5%; MIC (A. baumannii NCTC 13423; pre-exposure, Inactive = no activity up to 50 μM, > = some inhibition but no MIC reached, read-out: MIC A. baumannii NCTC 13423): > 50 µM; MIC (A. baumannii NCTC 13423; supplementary molecular formula strings sheet, read-out: MIC (A. baumannii)): > 50 µM

— PMC8296573, “Synthesis and Biological Evaluation of Fingolimod Derivatives as Antibacterial Agents” (ACS Omega, 2021)
